Data: patent US5242942A, “Anticonvulsant fructopyranose cyclic sulfites and sulfates” (McNeilab, Inc., priority 1992, dated 1993)

Assays:
tonic extensor seizure = experiment: maximal electroshock test (MES); assay type: in vivo, mouse (albino male CRS-CD1); settings: PO, mouse, 4 hr, read-out: % Block (MES Test, mouse)
Protocol: The compounds of formula (I) are particularly useful as anticonvulsant agents in mammals including humans. The anticonvulsant activity of the subject compounds was determined using a standard "maximal electroshock test" (MES). In this test, activity is indicated by a block of the […] extensor seizure caused by application of an electric shock to mice via corneal electrodes, as described by Swinyard et al. in J. Pharmacol. Expt. Ther. 1952, 106, 319, and recorded as % block. A more recent description of current anticonvulsant drug screening is given by Swinyard in Epilepsia 1978, 19, 409. The anticonvulsant activity of the compounds of this invention tested according to the Swinyard 1952 method is shown in the following Table I.
In the test, albino male CRS-CD1 mice weighing between 18-25 g were used in all experiments (obtained from Charles River). They were allowed food and water ad libitum and were used only once. The electroshock apparatus and the corneal electrodes were purchased from Wahlquist Instrument Company, Salt Lake City, Utah.
Maximal electroshock seizures were induced by the delivery of a 60 Hertz (Hz) current of 50 milliamps (mA) intensity to the mouse through corneal electrodes for 0.2 seconds as originally described by Swinyard et al. (1952). This stimulus intensity is approximately 4 to 6 times the current producing 100% tonic extensor convulsions. During the validation of the MES test, the duration of the various seizure components following maximal electroshock were measured as follows: hindleg tonic flexion was measured from the time of the application of the stimulus to the time of onset of hindleg tonic extension (i.e. when the hindlegs deviate by greater than an angle of 90° from the torso), hindleg tonic extensor was measured from the time of extensor thrust to the onset of generalized clonus, and terminal clonus was measured from the beginning to the end of bilateral rhythmic clonic jerking. Mortality was also recorded. The duration of each seizure component agreed well with the values previously reported by Tedeschi et al. in J. Pharmacol. Expt. Ther. 1955, 116, 107. The corneal electrodes were concave so that saline could be applied to the electrodes to reduce mortality. If this procedure is followed, mortality should always be less than 40% in control mice. Thus, at an electroshock stimulus of 60 Hz, 50 mA and 0.2 seconds duration, the order of convulsive components and the percentage of control animals displaying the behaviors should be as follows: tonic flexion (100%), tonic extension (100%) and clonus (100%) with less than 40% mortality.
For testing compounds, the abolition of the tonic extensor component was the endpoint. Animals were dosed orally (PO) with either vehicle or test drug and at a specified time were given a maximal electric shock through corneal electrodes blotted with saline (as described above). A minimum of 10 animals were used per group and the percentage of animals in the group without tonic hindlimb extension recorded. Determination of ED50 values (that dose of drug inhibiting 50% of the tonic extensor seizures) is shown below in Table I.

rat diuresis study = assay type: in vivo, rat (male Wistar); settings: 2.5 mg/kg PO, average of five animals
Text: Evidence for the inhibition of carbonic anhydrase by compounds of the formula (I) can also be obtained by a diuresis study, such as described by A. Weiner in Goodman and Gilman's The Pharmacological Basis of Therapeutics, 8th ed.; Goodman Gilman, A.; Rall, T. W.; Nies, A. S.; Taylor, P., Eds.; Pergamon Press: New York, 1990; pp 716-718. An increase in urine akalinity accompanied with an increase in water intake and urine output provides an indirect indication of carbonic anhydrase inhibition activity. Male Wistar rats having a weight of 250-300 g were dosed orally (PO) and housed in cages that allowed for the quantitative measure of fluid intake and urine output. Water intake and urine output were measured at 24 hours versus control, whereas urine pH, obtained via pH meter, was measured at 4 and 24 hours versus control. The results of this study, which are the average of five animals, are reported below in Table III. […] Such data is also an indication of the usefulness of the compounds of formula (I) as diuretics in the treatment of hypertension, congestive heart failure and other types of edema. The determination of suitable dosages for such compounds for the treatment of hypertension and congestive heart failure and other types of edema is within the skill of the art.

Total Acid Output = experiment: pylorus-ligated rat test, gastric antisecretory activity; assay type: in vivo, rat (male Charles River Sprague-Dawley derived); settings: IP, 200 mg/kg
Protocol: The gastric antisecretory activity of the compounds shown in Table II was determined by the pylorus-ligated rat test described by Shay et al. in Gastroenterol. 1954, 26, 906. In this method, male Charles River Sprague-Dawley derived rats weighing 150-300 grams were deprived of food but not water for 18-24 hours prior to use. Water was withheld during the experiment, however. The rats were weighed, lightly anesthetized with ether and the pylorus ligated according to the method of Shay et al., supra. The treatment or vehicle control was then administered intraperitoneally (IP) or orally (PO). When administered by the IP route, the administration was done 30 minutes before ligation. When administered by the PO route, the administration was done prior to ligation (about 1/2 to 3 hours before). Rats were housed two per cage and sacrificed with carbon dioxide 3 hours after ligation. Their stomachs were removed, rinsed, and contents emptied into a graduated centrifuge tube. The tubes were centrifuged, the volume of gastric juice was recorded, and any samples obviously contaminated by feces, food or blood were eliminated. A 1 mL aliquot of gastric juice was titrated with 0.1N NaOH to a pH of 7.0-7.4. The volume of gastric juice secreted, the acid concentration, and the product of the volume times the concentration, i.e. the total amount of acid secreted, were measured. The total acid output was calculated by multiplying the volume of gastric juices collected times the hydrogen ion concentration (amount of NaOH added to a sample to reach a pH of 7.0-7.4) and dividing that value by 10. The mean value of the total acid output for a control group of rats was then subtracted from the mean value of the total acid output for the group of rats tested at the same dose. That value was then divided by the mean value of total acid output for the control group and the resulting number was multiplied by 100 to provide a Percent Inhibition value, which values are reported in Table II. The […] was determined statistically as the dose at which a 50% inhibition would be realized.

Compound	responders at 10 mg/kg (tonic extensor seizure; 10 mg/kg)	Urine pH (rat diuresis study; 4 hours, control 6.98)	Urine pH (rat diuresis study; 24 hours, control 6.43)	Water Intake (rat diuresis study; 24 hours, control 15.0)	Urine Output (rat diuresis study; 24 hours, control 17.6)	Percent Inhibition of Total Acid Output (Total Acid Output)	responders at 35 mg/kg (tonic extensor seizure; 35 mg/kg)
CC1(C)O[C@H]2[C@@H]3OS(=O)(=O)O[C@@H]3CO[C@@]2(COS(=O)(=O)NC2CC2)O1 [Example 9, 2,3-O-(1-Methylethylidene)-4,5-O-sulfonyl-β-D-fructopyranose Cyclopropylsulfamate]	90%	9.02	7.26	27.8 mL	33.2 mL	87%	–
CC1(C)O[C@H]2[C@@H]3OS(=O)(=O)O[C@@H]3CO[C@@]2(COS(=O)(=O)N=[N+]=[N-])O1 [Example 15, 2,3-O-(1-Methylethylidene)-4,5-O-sulfonyl-β-D-fructopyranose Azidosulfate]	–	–	–	–	–	96%	100%
